Results: US6461997B1, “Triazole sulfones having herbicidal activity” (Monsanto Technology LLC, priority 1999, dated 2002)

Test system: SORHA (johnsongrass (seedling))
Experiment: Pre-emergence herbicidal activity, warm season
Format: in vivo, Sorghum halepense
Conditions: GR80 = lowest tested rate (300, 100, 30, 10 g/ha) with 80% or greater inhibition; approx. 14 days after treating; 30/21° C.
Outline: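 Seeds sown in sterilised fertilised topsoil received surface-applied compound in 50:50 acetone/water, typically at 300, 100, 30 and 10 g/ha, then greenhouse-grown at 30/21° C (warm-season species) or 18/13° C (cool-season species). Percent inhibition versus untreated plants was scored at about 14 days, giving GR80; an asterisk marks activity short of 80% at the top rate.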

Row | SMILES | Pre-emergence activity (GR80) SORHA [g/ha]
1 | C=CCC(F)(F)S(=O)(=O)c1ncn(C(=O)N(CC)CC)n1 [Example 17, 1-(N,N-diethylcarbamoyl)-3-[(1,1-difluoro-3-butenyl)sulfonyl]-1,2,4-triazole] | 100

Test system: ALOMY (blackgrass)
Experiment: Pre-emergence herbicidal activity, cool season
Format: in vivo, Alopecurus myosuroides
Conditions: GR80 = lowest tested rate (300, 100, 30, 10 g/ha) with 80% or greater inhibition; approx. 14 days after treating; 18/13° C.
Outline: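 Pre-emergence soil-surface spray; rates 300/100/30/10 g/ha; acetone:water 50:50 diluent. Warm-season species (PANMI, DIGSA) grown at 30/21 °C, cool-season species (ALOMY, POLCO) at 18/13 °C. Inhibition scored ~14 d after treatment versus untreated controls → GR80.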

Row | SMILES | Pre-emergence activity (GR80) ALOMY [g/ha]
2 | C=CCC(F)(F)S(=O)(=O)c1ncn(C(=O)N(CC)CC)n1 [Example 17, 1-(N,N-diethylcarbamoyl)-3-[(1,1-difluoro-3-butenyl)sulfonyl]-1,2,4-triazole] | 100

Test system: AVEFA (wild oat)
Experiment: Pre-plant incorporated (PPI) herbicidal activity, cool season
Format: in vivo, Avena fatua
Conditions: Avena fatua; weed, PPI application, 10 g/ha; read-out: Percent inhibition AVEFA
Method: In another set of tests, the pre-plant incorporated (PPI) activity of compounds of this invention was evaluated on the same species as for the pre-emergence tests described above. In the PPI tests the following procedure, designed to simulate PPI application, was used.
(§1) A pre-prepared topsoil mixture (described above) was placed in a pot and compacted to a depth of 1.0 to 1.25 cm from the top of the pot. Seeds of each of several monocotyledonous and dicotyledonous annual plant species were placed on top of the soil. A sufficient quantity of soil to cover the seeds and level fill the pot was weighed into an open container. A known amount of the test compound was dissolved or suspended in an organic solvent and applied by spraying to this cover soil. The cover soil was thoroughly mixed to distribute the test compound throughout the cover soil, and was then applied as a cover layer over the seeds. Untreated soil was used as a cover layer for control pots. After treatment the plants were placed in a greenhouse where they received 0.64 cm of overhead irrigation. All subsequent watering consisted of a light overhead mist and/or subirrigation as needed for germination and growth. Tables 9 and 10 below relate to warm season plant species which were placed after pre-emergence treatment in a greenhouse with a 30/21° C. day/night temperature regime. Tables 11 and 12 below relates to cool season plant species placed after pre-emergence treatment in a greenhouse or growth chamber with an 18/13° C. day/night temperature regime. Only the compounds of Examples 1, 6, 8, 11, 13 and 15-20 were included in PPI tests.
(§2) Approximately 14 days after planting and treating, the plants were observed and herbicidal efficacy recorded as percent inhibition by comparison with untreated plants.

Row | SMILES | inhibition at 10 g/ha [%]
3 | C=CCC(F)(F)S(=O)(=O)c1ncn(C(=O)N(CC)CC)n1 [Example 17, 1-(N,N-diethylcarbamoyl)-3-[(1,1-difluoro-3-butenyl)sulfonyl]-1,2,4-triazole] | 0

Same assay, conditions: Avena fatua; weed, PPI application, 30 g/ha; read-out: Percent inhibition AVEFA

Row | SMILES | inhibition at 30 g/ha [%]
4 | C=CCC(F)(F)S(=O)(=O)c1ncn(C(=O)N(CC)CC)n1 [Example 17, 1-(N,N-diethylcarbamoyl)-3-[(1,1-difluoro-3-butenyl)sulfonyl]-1,2,4-triazole] | 15

Same assay, conditions: Avena fatua; weed, PPI application, 100 g/ha; read-out: Percent inhibition AVEFA

Row | SMILES | inhibition at 100 g/ha [%]
5 | C=CCC(F)(F)S(=O)(=O)c1ncn(C(=O)N(CC)CC)n1 [Example 17, 1-(N,N-diethylcarbamoyl)-3-[(1,1-difluoro-3-butenyl)sulfonyl]-1,2,4-triazole] | 50

Same assay, conditions: Avena fatua; weed, PPI application, 300 g/ha; read-out: Percent inhibition AVEFA

Row | SMILES | inhibition at 300 g/ha [%]
6 | C=CCC(F)(F)S(=O)(=O)c1ncn(C(=O)N(CC)CC)n1 [Example 17, 1-(N,N-diethylcarbamoyl)-3-[(1,1-difluoro-3-butenyl)sulfonyl]-1,2,4-triazole] | 75

Same assay, conditions: Avena fatua; weed, PPI application, 900 g/ha; read-out: Percent inhibition AVEFA

Row | SMILES | inhibition at 900 g/ha [%]
7 | C=CCC(F)(F)S(=O)(=O)c1ncn(C(=O)N(CC)CC)n1 [Example 17, 1-(N,N-diethylcarbamoyl)-3-[(1,1-difluoro-3-butenyl)sulfonyl]-1,2,4-triazole] | 100

Same assay, conditions: pre-plant incorporated; lowest tested rate with 80% or greater inhibition; about 14 days

Row | SMILES | PPI activity GR80, AVEFA [g/ha]
8 | C=CCC(F)(F)S(=O)(=O)c1ncn(C(=O)N(CC)CC)n1 [Example 17, 1-(N,N-diethylcarbamoyl)-3-[(1,1-difluoro-3-butenyl)sulfonyl]-1,2,4-triazole] | 100

Test system: LOLMG (annual ryegrass)
Experiment: Post-emergence herbicidal activity, cool season
Format: in vivo, Lolium multiflorum
Conditions: abraded plants sprayed at 300, 100, 30 and 10 g/ha; about 14 days after treatment
Outline: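 GR80 values derive from percent growth inhibition scored approximately 14 days post-spray against abraded, unsprayed controls under an 18/13 °C regime. Foliar application to sandblast-abraded plants used rates of 300, 100, 30 and 10 g/ha in 50:50 acetone/water at 3,100 l/ha.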

Row | SMILES | Post-emergence activity GR80, LOLMG
9 | C=CCC(F)(F)S(=O)(=O)c1ncn(C(=O)N(CC)CC)n1 [Example 17, 1-(N,N-diethylcarbamoyl)-3-[(1,1-difluoro-3-butenyl)sulfonyl]-1,2,4-triazole] | [empty]

Test system: soybean (GLYMX)
Experiment: Selectivity test, PPI, warm season crop
Format: in vivo, Glycine max
Conditions: Glycine max; PPI application, 10 g/ha; read-out: Percent inhibition GLYMX
Method: as §1, §2
(§3) Additional pre-emergence and PPI tests were conducted by the procedures described above, on warm and cool season weed species in the presence of crop species, to assess herbicidal selectivity. Crop species included in warm season tests were corn (Zea mays, ZEAMX), rice (Oryza sativa, ORYSA) and soybean (Glycine max, GLYMX). Crop species included in cool season tests were wheat (Triticum aestivum, TRZAW), barley (Hordeunm vulgare, HORVX) and oilseed rape (Brassica napus, BRSNS).
(§4) Tables 15 and 16 relate to pre-emergence and PPI tests respectively on warm season species. Table 17 relates to pre-emergence tests on cool season species.

Row | SMILES | inhibition at 10 g/ha [%]
10 | C=CCC(F)(F)S(=O)(=O)c1ncn(C(=O)N(CC)CC)n1 [Example 17, 1-(N,N-diethylcarbamoyl)-3-[(1,1-difluoro-3-butenyl)sulfonyl]-1,2,4-triazole] | 0

Same assay, conditions: Glycine max; PPI application, 30 g/ha; read-out: Percent inhibition GLYMX

Row | SMILES | inhibition at 30 g/ha [%]
11 | C=CCC(F)(F)S(=O)(=O)c1ncn(C(=O)N(CC)CC)n1 [Example 17, 1-(N,N-diethylcarbamoyl)-3-[(1,1-difluoro-3-butenyl)sulfonyl]-1,2,4-triazole] | 0

Same assay, conditions: Glycine max; PPI application, 100 g/ha; read-out: Percent inhibition GLYMX

Row | SMILES | inhibition at 100 g/ha [%]
12 | C=CCC(F)(F)S(=O)(=O)c1ncn(C(=O)N(CC)CC)n1 [Example 17, 1-(N,N-diethylcarbamoyl)-3-[(1,1-difluoro-3-butenyl)sulfonyl]-1,2,4-triazole] | 0

Same assay, conditions: Glycine max; PPI application, 300 g/ha; read-out: Percent inhibition GLYMX

Row | SMILES | inhibition at 300 g/ha [%]
13 | C=CCC(F)(F)S(=O)(=O)c1ncn(C(=O)N(CC)CC)n1 [Example 17, 1-(N,N-diethylcarbamoyl)-3-[(1,1-difluoro-3-butenyl)sulfonyl]-1,2,4-triazole] | 20

Same assay, conditions: Glycine max; PPI application, 900 g/ha; read-out: Percent inhibition GLYMX

Row | SMILES | inhibition at 900 g/ha [%]
14 | C=CCC(F)(F)S(=O)(=O)c1ncn(C(=O)N(CC)CC)n1 [Example 17, 1-(N,N-diethylcarbamoyl)-3-[(1,1-difluoro-3-butenyl)sulfonyl]-1,2,4-triazole] | 80

Test system: barley (HORVX)
Experiment: Selectivity test, PPI, cool season crop
Format: in vivo, Hordeunm vulgare
Conditions: Hordeum vulgare, PPI application, 10 g/ha, read-out: Percent inhibition HORVX
Method: as §1, §2, §3, §4

Row | SMILES | inhibition at 10 g/ha [%]
15 | C=CCC(F)(F)S(=O)(=O)c1ncn(C(=O)N(CC)CC)n1 [Example 17, 1-(N,N-diethylcarbamoyl)-3-[(1,1-difluoro-3-butenyl)sulfonyl]-1,2,4-triazole] | 0

Same assay, conditions: Hordeum vulgare, PPI application, 30 g/ha, read-out: Percent inhibition HORVX

Row | SMILES | inhibition at 30 g/ha [%]
16 | C=CCC(F)(F)S(=O)(=O)c1ncn(C(=O)N(CC)CC)n1 [Example 17, 1-(N,N-diethylcarbamoyl)-3-[(1,1-difluoro-3-butenyl)sulfonyl]-1,2,4-triazole] | 0

Same assay, conditions: Hordeum vulgare, PPI application, 100 g/ha, read-out: Percent inhibition HORVX

Row | SMILES | inhibition at 100 g/ha [%]
17 | C=CCC(F)(F)S(=O)(=O)c1ncn(C(=O)N(CC)CC)n1 [Example 17, 1-(N,N-diethylcarbamoyl)-3-[(1,1-difluoro-3-butenyl)sulfonyl]-1,2,4-triazole] | 10

Same assay, conditions: Hordeum vulgare, PPI application, 300 g/ha, read-out: Percent inhibition HORVX

Row | SMILES | inhibition at 300 g/ha [%]
18 | C=CCC(F)(F)S(=O)(=O)c1ncn(C(=O)N(CC)CC)n1 [Example 17, 1-(N,N-diethylcarbamoyl)-3-[(1,1-difluoro-3-butenyl)sulfonyl]-1,2,4-triazole] | 30

Same assay, conditions: Hordeum vulgare, PPI application, 900 g/ha, read-out: Percent inhibition HORVX

Row | SMILES | inhibition at 900 g/ha [%]
19 | C=CCC(F)(F)S(=O)(=O)c1ncn(C(=O)N(CC)CC)n1 [Example 17, 1-(N,N-diethylcarbamoyl)-3-[(1,1-difluoro-3-butenyl)sulfonyl]-1,2,4-triazole] | 60
